Measurements: US12059413B2, “Methods of inhibiting viruses using compositions targeting TSG101-ubiquitin interaction” (The Research Foundation for the State University of New York, priority 2016, dated 2024)

Columns and labels:
HIV-1 NL4-3 = test: Viral particle production from 293T cells transfected with pNL4-3, p24 ELISA; type: cell-based
Experimental: FIG. 15A-D. N16 inhibits HIV-1 NL4-3 and Gag VLP production. A) Effect on virus production. Virus particles from N16-treated 293T cells transfected with pNL4-3 as determined by ELISA assay. Top, The compound was added 6 hr prior to DNA transfection and tissue culture media was harvested 24 hr later. Bottom, The compound was added at the indicated concentration 24 hr after DNA transfection and tissue culture media was harvested 24 hr later. Assay values were normalized to that of the DMSO carrier control. B) Effect on virus infectivity. Infectious viral particles per ng p24 as determined by MAGI assay. C) Left, Electron microscopy of particles at cell surface at 24 hr post-N16 addition; Right, Quantitative analysis of budding morphologies. Cells expressing WT- or P7L-NL4-3 were exposed to DMSO carrier or 50 μM N16. Arrows indicate emerging ‘Early’ buds. D) Effects on Gag VLP production. Top, Western blot analysis. Cells treated at the indicated concentration were transfected with DNA encoding Gag-HA. At the end of the treatment period, tissue culture media was removed for VLP isolation. […] Bottom, Quantitative analysis. […]
For production of virus particles, 293T cells were transfected with pNL4-3-ΔEnv and pIIIB Env3-1 plasmids and for virus-like particles (VLP), with pCMV-Gag-HA as previously described (Watanabe et al. (2013)). For specific infectivity, media-associated p24 was determined by ELISA (Immunodiagnostics, Inc.) and equivalent amounts of p24 were used to infect HeLa-CD4+-LTR-3 gal cells for infectivity measurement by the multinuclear activation of a galactosidase indicator (MAGI) assay. […] For cell-associated Gag analysis, cell pellets were lysed with either Triton X-100 or RIPA buffer with complete mini protease inhibitor cocktail (Roche) and analyzed by Western blotting. Protein bands were visualized using an infrared-based imaging system (Odyssey, LI-COR Biotechnology) and band intensities measured using the Li-Cor Odyssey software version 2.1.15. Virus particle release efficiency was calculated [VLP signal intensity/(VLP signal intensity+cell lysate signal intensity)]. […]

[1] = test system: Tsg101 midbody localization; test: Tsg101 midbody localization in dividing cells; type: cell-based; details: N16 50 uM; 200 cells sampled; 12% in absence
Experimental: FIG. 20A-C. N16 inhibition is virus-specific. A) N16 IC50 for Hela and 293T cells. […] Values were calculated by measuring metabolic activity (WST-1 Assay, Roche Applied Science) after cells were grown for 24 hr in N16. Data points represent the mean of 2 assays, 3 time points each for each cell line. […] Values in the absence or presence of N16 (50 uM) were 12% and 13%, respectively). C) N16 effect on EGF-stimulated EFGR degradation. Cells maintained for 24 hr in media containing DMSO alone or DMSO and N16 were stimulated with EGF ligand for a 90 min period and then assessed for EGFR steady-state level by Western analysis. EGFR levels for unstimulated and stimulated sample pairs are shown. A) n=2; B) n=2; C) n=2.
We investigated the specificity of the inhibitory effect. F15 and N16 impaired Tsg101-co-localization with Gag on the plasma membrane (c.f, FIG. 19) and reduced release of the VLPs assembled by Gag (c.f, FIG. 15). […] Cell metabolic activity was not affected after exposure to N16 for 24 hr; it decreased by less than 10% after exposure to N16 for 48 hr (not shown). Tsg101 localization to the midbody of dividing cells requires its recruitment to that location by centrosomal protein of 55k (CEP55) which binds a site in the Tsg101 Pro-rich domain (aa 154-166) (Lee, H. H., et al. (2008)). […]

In the case of `COc1ccc2[nH]c([S+]([O-])Cc3ncc(C)c(OC)c3C)nc2n1` (stereo not shown) [N16, tenatoprazole], the EC50 (HIV-1 NL4-3; Human immunodeficiency virus 1, NL43, HEK-293T, 6 h, N16 added six hours before transfection, 293T cells) is reported as 25 to 50 µM, the “effect on budding when added 24 hr post-transfection” value (HIV-1 NL4-3; addition at 24 hr post-transfection, even at higher concentrations) is reported as “little effect” and the “lowest concentration achieved in tissue culture assays under optimal conditions” value (HIV-1 NL4-3; c.f. FIG. 15) is reported as 25 to 50 µM. The “frequency of cells exhibiting Tsg101 midbody localization” value [1] was 13%.
